What was measured:
H1703 oncospheres = experiment: H1703 oncosphere growth, 10 days, EZQuant; assay type: cell-based, human; conditions: for cell count of H1703 oncospheres: compounds replenished every 2 days
Experimental: Duplicate wells were treated with the indicated concentrations of compound for 10 days. Compounds were replenished in the media every 2 days. Cell number was quantified at Day 10 using EZQuant (Alstem).

Hhat = Hhat (Homo sapiens, UniProt Q5VTY9); experiment: Hhat-mediated Shh palmitoylation in COS-1 cells transfected with Shh and Hhat ([125I]-iodopalmitate labeling); assay type: cell-based; parameters: dose or concentration left out as unconfirmed; conditions: 4 hr labeling at 37° C.
Hhat, sequence (Q5VTY9 whole entry): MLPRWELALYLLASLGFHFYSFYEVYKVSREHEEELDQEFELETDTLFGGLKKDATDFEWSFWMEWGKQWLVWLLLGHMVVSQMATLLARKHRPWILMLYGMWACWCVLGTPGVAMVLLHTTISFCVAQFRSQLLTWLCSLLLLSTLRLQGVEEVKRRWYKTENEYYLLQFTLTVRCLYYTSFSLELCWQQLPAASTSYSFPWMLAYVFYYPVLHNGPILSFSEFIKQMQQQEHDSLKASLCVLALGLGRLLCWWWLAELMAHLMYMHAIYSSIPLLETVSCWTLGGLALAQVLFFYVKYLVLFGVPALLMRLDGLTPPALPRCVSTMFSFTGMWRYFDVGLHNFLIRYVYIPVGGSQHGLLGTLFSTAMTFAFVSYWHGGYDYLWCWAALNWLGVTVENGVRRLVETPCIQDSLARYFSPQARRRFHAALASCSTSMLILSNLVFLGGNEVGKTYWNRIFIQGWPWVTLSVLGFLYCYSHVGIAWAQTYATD
Experimental: FIGS. 1A-1B. […] FIG. 1A. COS-1 cells were transfected with cDNA plasmids encoding Shh and Hhat (see, e.g., Buglino, J. A., and Resh, M. D. “Hhat is a palmitoyl acyltransferase with specificity for N-palmitoylation of sonic hedgehog” J. Biol. Chem. 2008, 283, 22076-22088; Petrova, E., Rios-Esteves, J., Ouerfelli, O., Glickman, J. F., and Resh, M. D. “Inhibitors of Hedgehog acyltransferase block Sonic Hedgehog signaling” Nat Chem Biol 2013, 9, 247-249). 48 hours after transfection, cells were starved for 1 hour in DMEM containing 2% dialyzed fetal calf serum and then labeled for 4 hr at 37° C. with […] [^125I]-iodopalmitate in the presence of […] of the indicated compound or DMSO. Cell lysates were immunoprecipitated with anti-Shh antibody, analyzed by SDS-PAGE and dried gels were subjected to Phosphorimaging. The amount of radiolabel incorporated into Shh was quantified and compared to that obtained for DMSO (normalized to 1.0). % Inhibition=1−(signal in drug treated sample/signal in DMSO sample)×100. FIG. 1B. Structure of RU-SKI 43 (see, e.g., Petrova, E., Rios-Esteves, J., Ouerfelli, O., Glickman, J. F., and Resh, M. D. “Inhibitors of Hedgehog acyltransferase block Sonic Hedgehog signaling” Nat Chem Biol 2013, 9, 247-249).

[1] = test system: AsPC1 human pancreatic cancer cells; experiment: AsPC1 cell growth, 24-well plates, 6 days, Crystal violet staining; assay type: cell-based; conditions: ASPC1, 144 h, FIG. 2D inhibition curve
Experimental: FIGS. 2A-2D show inhibition of the growth of AsPC1 cells by TDI compounds. […] Compounds were added on Day 0, and were replenished in the media every 2 days. Each condition was represented by duplicate wells. Cell number was quantified by Crystal violet staining. FIG. 2A. Growth curve. FIG. 2B. Crystal violet staining of a typical set of 6 wells. FIG. 2C. Bar graph depicting % inhibition of cell proliferation at Day 6 for each compound, compared to DMSO treated cells. % Inhibition was calculated as in FIG. 1A.

purified Hhat = molecular target: T1, purified Hhat (Homo sapiens, UniProt Q5VTY9); experiment: Pulldown assay: purified Hhat + 125I-palmitoyl CoA + Shh peptide; assay type: biochemical; conditions: 1 hr at 20° C.; read-out: IC50, Shh palmitoylation by purified Hhat
T1 construct: HA; made in house; host or cells: 293FT cells
T1 sequence (Q5VTY9 whole entry): as above
Experimental: FIG. 3. TDI-003410 inhibits Shh palmitoylation by purified Hhat. Pulldown assay: Purified Hhat+^125I-palmitoyl CoA+Shh peptide. […] Hhat was purified to homogeneity from 293FT cells transfected with a cDNA encoding HA-tagged Hhat, as described by Buglino and Resh (see, e.g., Buglino, J. A., and Resh, M. D. “Hhat is a palmitoyl acyltransferase with specificity for N-palmitoylation of sonic hedgehog” J. Biol. Chem. 2008, 283, 22076-22088). Purified Hhat was incubated with ^125I-Iodopalmitoyl CoA and a C-terminally biotinylated Shh peptide (representing the first 10 amino acids of mature Shh) for 1 hr at 20° C. in the presence of the indicated concentrations of TDI-3410. The reaction was quenched, and biotinylated peptides were captured on streptavidin-agarose beads by repeated centrifugation and washing. The amount of 125 radioactivity remaining in the bead pellet was determined in a g counter. % Inhibition was calculated as in FIG. 1A.

membrane-bound Hhat = molecular target: T2, membrane-bound Hhat (Homo sapiens, UniProt Q5VTY9); experiment: Shh palmitoylation by membrane-bound Hhat (P100 membranes, SPA); assay type: biochemical; conditions: 1 hr at 20° C., triplicate
T2 construct: HA; expressed in transfected cells; host or cells: 293FT cells (P100 microsomal membranes)
T2 sequence (Q5VTY9 whole entry): as above
Experimental: Microsomal membranes (P100) were prepared from 293FT cells transfected with a cDNA encoding HA-tagged Hhat as described (see, e.g., Buglino, J. A., and Resh, M. D. “Hhat is a palmitoyl acyltransferase with specificity for N-palmitoylation of sonic hedgehog” J. Biol. Chem. 2008, 283, 22076-22088; Petrova, E., Rios-Esteves, J., Ouerfelli, O., Glickman, J. F., and Resh, M. D. “Inhibitors of Hedgehog acyltransferase block Sonic Hedgehog signaling” Nat Chem Biol 2013, 9, 247-249). The protocol described by Petrova et al. (Nat Chem Biol 2013, 9, 247-249) was used to analyze Shh palmitoylation. Briefly, P100 membranes were incubated with ^125I-Iodopalmitoyl CoA and a C-terminally biotinylated Shh peptide in 384-well plates in the presence of the indicated concentrations of TDI-3410 for 1 hr at 20° C. Biotinylated peptides were captured on streptavidin-coated SPA (Scintillation Proximity Assay) beads and the amount of ^125I radioactivity was quantified on a Perkin-Elmer Trilux reader. Each data point represents the average of triplicate samples. % Inhibition was calculated as in FIG. 1A.

[2] = test system: AsPC1 human pancreatic cancer cells; experiment: AsPC1 cell growth, 96-well plates, 6 days, EZQuant; assay type: cell-based; conditions: 750 cells/well
Experimental: (§1) AsPC1 human pancreatic cancer cells (FIG. 5A) or T47D human breast cancer cells (FIG. 5B) were seeded at 750 cells/well in 96 well plates and grown for 6 days in the presence of the indicated concentrations of TDI-3410 or DMSO. Compounds were added on Day 0, and were replenished in the media every 2 days. Each condition was represented by duplicate wells. Cell number was quantified at Day 6 using EZQuant (Alstem).

[3] = test system: T47D human breast cancer cells; experiment: T47D cell growth, 96-well plates, 6 days, EZQuant; assay type: cell-based; conditions: 750 cells/well
Experimental: as §1

HeLa cells = experiment: HeLa cell proliferation, 24-well plates, EZQuant; assay type: cell-based; parameters: effect on proliferation of HeLa cells: dose or concentration left out as unconfirmed
Experimental: 24-well plate; Drugs replenished every 2 days; viable cells quantified with EZQuant; STS=Staurosporine, a positive control for cell killing. […] HeLa cells were seeded at 0.5×10^5 cells/well in 24-well plates and proliferation was assayed as described for FIG. 5. Each compound was present […].

[4] = test system: oncospheres derived from AsPC-1 human pancreatic cancer cells; experiment: AsPC-1 oncosphere growth, 7 days, EZQuant; assay type: cell-based; conditions: ASPC1, drug replenished every 2 days, read-out: IC50, cell proliferation of AsPC-1 oncospheres
Experimental: AsPC-1 pancreatic cancer cells were grown on ultra-low attachment plates for 7-10 days in serum-free medium containing EGF, FGF, Insulin and N-2 and B-27 supplement to form oncospheres, which represent cancer stem cells. Oncosphere cultures were expanded and replated, and were used after 7 days in 2° culture. Oncospheres grown in 24-well plates were treated with TDI-3410 or vehicle; drug was replenished every 2 days. 7 days later, oncospheres were dissociated with trypsin and total viable cell number was determined using EZQuant.

SMILES | cell count of H1703 oncospheres (H1703 oncospheres) | Hhat-mediated Shh palmitoylation (Hhat) | IC50 [1] [nM] | IC50 (purified Hhat) [nM] | IC50 (membrane-bound Hhat) [nM] | growth of AsPC1 human pancreatic cancer cells [2] | growth of T47D human breast cancer cells [3] | concentration above which growth of HeLa cells is inhibited (HeLa cells; FIG. 6B) [µM] | effect on proliferation of HeLa cells (HeLa cells; HeLa cells express no detectable Hhat) | IC50 (HeLa cells; Homo sapiens, HeLa, FIG. 6B inhibition curve, read-out: IC50, growth of HeLa cells) [nM] | IC50 (H1703 oncospheres; Homo sapiens, NCI-H1703, 240 h) [nM] | IC50 [4] [nM]
CCC(C)CNCC(=O)N1CCc2sccc2C1COc1cccc(C)c1 (stereo not shown) [RU-SKI 43, reference compound] | reduction in cell count with increased concentration |  |  |  |  |  |  |  |  |  |  | 
O=C(c1ccc2nccn2c1)N1CCc2sc(Cl)cc2[C@H]1c1ccc(F)cc1 [TDI-003410] | reduction in cell count with increased concentration | blocks Hhat-mediated Shh palmitoylation | 2680 | 1500 | 1780 | inhibits the growth | inhibits the growth | > 20 | little to no effect | 28500 | 1400 | 1800

Reference: US20200062776A1, “HEDGEHOG ACYLTRANSFERASE INHIBITORS AND USES THEREOF” (Memorial Sloan-Kettering Cancer Center, priority 2016, published 2020)
